Assay [1] deals with Serine/threonine-protein kinase PAK 4 (Homo sapiens, UniProt O96013). As to the kind of experiment: Selectivity interaction (KinomeScan (DiscoverX)) EUB0000595a PAK4. The conditions noted are these: at 10 µM.
Assay [2] deals with Dual specificity mitogen-activated protein kinase kinase 1 (Homo sapiens, UniProt Q02750). Kind of assay: Selectivity interaction (KinomeScan (DiscoverX)) EUB0000695a MAP2K1. The conditions noted are these: at 100 nM.
Assay [3] has as its target T1, Tyrosine-protein kinase TXK (Homo sapiens) (UniProt P42681).
T1 sequence (whole entry): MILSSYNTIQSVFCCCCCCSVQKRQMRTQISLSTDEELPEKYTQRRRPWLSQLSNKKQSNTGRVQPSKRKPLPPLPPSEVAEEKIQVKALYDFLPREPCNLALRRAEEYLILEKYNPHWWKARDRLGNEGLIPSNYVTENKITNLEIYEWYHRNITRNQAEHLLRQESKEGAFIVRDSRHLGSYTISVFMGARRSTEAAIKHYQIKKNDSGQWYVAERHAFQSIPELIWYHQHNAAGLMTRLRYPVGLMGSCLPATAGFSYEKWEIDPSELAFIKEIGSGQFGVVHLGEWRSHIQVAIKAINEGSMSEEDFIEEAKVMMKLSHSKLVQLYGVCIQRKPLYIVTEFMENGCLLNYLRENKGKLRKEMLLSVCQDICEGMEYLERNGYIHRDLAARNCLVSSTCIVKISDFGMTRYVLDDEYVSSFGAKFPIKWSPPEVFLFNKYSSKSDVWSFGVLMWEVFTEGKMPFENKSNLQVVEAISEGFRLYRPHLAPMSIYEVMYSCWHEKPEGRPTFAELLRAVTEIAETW
Kind of assay: Selectivity interaction (Kinase panel (Invitrogen)) EUB0000639a TXK. As to conditions: at 200 nM.

Assay [4] has as its target T2, Tyrosine-protein kinase JAK3 (Homo sapiens) (UniProt P52333).
T2 sequence (whole entry): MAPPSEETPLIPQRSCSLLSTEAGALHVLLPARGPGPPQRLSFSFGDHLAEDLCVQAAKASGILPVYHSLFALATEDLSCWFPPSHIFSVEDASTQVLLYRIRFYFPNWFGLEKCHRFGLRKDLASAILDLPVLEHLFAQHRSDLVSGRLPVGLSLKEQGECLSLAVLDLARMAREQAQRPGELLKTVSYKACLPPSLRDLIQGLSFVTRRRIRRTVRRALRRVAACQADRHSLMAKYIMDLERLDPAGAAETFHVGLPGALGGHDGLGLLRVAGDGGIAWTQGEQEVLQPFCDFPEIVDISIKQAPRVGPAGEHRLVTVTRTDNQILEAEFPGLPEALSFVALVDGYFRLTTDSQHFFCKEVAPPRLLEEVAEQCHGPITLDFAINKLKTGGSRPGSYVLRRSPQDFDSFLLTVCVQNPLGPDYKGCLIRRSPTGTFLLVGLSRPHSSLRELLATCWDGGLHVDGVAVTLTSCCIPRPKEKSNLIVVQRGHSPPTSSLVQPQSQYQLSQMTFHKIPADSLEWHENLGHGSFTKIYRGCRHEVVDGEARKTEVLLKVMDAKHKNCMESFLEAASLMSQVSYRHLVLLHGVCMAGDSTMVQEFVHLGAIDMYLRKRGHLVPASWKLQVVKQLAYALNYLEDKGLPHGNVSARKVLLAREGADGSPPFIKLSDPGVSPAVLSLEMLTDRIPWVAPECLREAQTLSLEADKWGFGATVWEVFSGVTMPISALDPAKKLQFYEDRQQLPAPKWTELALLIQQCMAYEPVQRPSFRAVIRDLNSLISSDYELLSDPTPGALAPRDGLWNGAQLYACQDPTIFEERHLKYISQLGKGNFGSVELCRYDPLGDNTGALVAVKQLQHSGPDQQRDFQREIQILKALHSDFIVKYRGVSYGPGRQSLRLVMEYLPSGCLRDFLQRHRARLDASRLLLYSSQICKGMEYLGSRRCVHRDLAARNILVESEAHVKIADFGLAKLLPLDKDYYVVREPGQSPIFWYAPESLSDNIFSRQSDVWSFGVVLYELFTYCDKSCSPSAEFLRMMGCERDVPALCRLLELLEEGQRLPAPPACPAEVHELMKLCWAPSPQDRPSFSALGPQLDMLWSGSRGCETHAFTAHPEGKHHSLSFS
As to the kind of experiment: Selectivity interaction (KinomeScan (DiscoverX)) EUB0000045b JAK3. As to conditions: at 1 µM.

Assay [5] deals with T3, Discoidin domain-containing receptor 2 (Homo sapiens) (UniProt Q16832).
T3 sequence (whole entry): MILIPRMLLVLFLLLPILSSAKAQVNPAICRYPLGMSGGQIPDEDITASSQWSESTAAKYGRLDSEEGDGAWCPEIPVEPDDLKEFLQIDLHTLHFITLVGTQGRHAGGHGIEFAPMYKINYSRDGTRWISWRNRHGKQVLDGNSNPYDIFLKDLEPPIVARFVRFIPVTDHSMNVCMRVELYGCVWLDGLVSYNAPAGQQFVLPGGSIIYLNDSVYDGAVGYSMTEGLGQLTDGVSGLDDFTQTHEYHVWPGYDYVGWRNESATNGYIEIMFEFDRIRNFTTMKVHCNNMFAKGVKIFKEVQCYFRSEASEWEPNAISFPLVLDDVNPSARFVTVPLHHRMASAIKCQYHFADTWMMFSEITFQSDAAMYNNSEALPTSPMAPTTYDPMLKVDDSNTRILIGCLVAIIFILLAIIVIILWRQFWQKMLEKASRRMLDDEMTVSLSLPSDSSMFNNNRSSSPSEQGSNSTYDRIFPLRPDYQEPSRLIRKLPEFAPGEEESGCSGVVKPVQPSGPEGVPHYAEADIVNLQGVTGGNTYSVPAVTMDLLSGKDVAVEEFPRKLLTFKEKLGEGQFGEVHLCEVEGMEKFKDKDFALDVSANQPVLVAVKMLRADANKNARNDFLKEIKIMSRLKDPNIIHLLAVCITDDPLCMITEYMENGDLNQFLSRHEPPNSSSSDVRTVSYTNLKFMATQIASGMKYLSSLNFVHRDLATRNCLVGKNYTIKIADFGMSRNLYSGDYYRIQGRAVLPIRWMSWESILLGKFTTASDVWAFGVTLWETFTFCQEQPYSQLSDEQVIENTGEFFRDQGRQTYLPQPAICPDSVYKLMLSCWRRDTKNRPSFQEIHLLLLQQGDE
As to the kind of experiment: Selectivity interaction (Ambit KINOMEscan and KiNATiv profiling in Jurkat cells) EUB0000090b DDR2. It is filed as cell-based. The conditions noted are these: at 1 µM.

Each structure is given as a SMILES string.

The text below walks through data of ChEMBL document CHEMBL5465560, “Selectivity Literature for EUbOPEN Chemogenomic Library” (2024).

Chain of Serine/threonine-protein kinase PAK 4 (O96013 whole entry, looked up): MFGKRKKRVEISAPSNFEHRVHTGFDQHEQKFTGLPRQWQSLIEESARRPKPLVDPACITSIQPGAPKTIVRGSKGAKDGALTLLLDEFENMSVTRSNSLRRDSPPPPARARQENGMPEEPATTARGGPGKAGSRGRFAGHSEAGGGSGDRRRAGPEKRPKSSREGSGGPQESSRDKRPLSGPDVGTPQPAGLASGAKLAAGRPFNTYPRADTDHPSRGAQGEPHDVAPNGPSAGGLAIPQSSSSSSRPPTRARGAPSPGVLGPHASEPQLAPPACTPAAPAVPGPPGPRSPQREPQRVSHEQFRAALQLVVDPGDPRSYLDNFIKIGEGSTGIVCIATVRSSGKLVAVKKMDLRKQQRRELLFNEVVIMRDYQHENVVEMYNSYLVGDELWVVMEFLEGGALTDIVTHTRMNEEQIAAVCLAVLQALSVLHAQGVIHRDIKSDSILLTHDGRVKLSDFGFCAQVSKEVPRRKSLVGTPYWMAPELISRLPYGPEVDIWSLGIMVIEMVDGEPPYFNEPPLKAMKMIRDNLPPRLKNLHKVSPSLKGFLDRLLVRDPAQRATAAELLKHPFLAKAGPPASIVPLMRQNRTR
Chain of Dual specificity mitogen-activated protein kinase kinase 1 (Q02750 whole entry): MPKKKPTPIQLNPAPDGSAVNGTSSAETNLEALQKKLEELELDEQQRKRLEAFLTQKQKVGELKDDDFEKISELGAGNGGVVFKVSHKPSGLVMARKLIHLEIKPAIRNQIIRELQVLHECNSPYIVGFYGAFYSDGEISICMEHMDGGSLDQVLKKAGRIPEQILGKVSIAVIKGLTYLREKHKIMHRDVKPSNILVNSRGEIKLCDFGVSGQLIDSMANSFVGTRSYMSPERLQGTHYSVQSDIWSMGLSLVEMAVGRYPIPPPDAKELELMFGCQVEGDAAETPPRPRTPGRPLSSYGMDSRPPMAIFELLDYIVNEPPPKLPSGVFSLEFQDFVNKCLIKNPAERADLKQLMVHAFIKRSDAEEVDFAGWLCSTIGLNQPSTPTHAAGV

Consider `COCC(=O)NC/C=C/c1ccc2ncnc(Nc3ccc(Oc4ccc(C)nc4)c(C)c3)c2c1` [CP-724714], for which the % of control in assay [1] worked out at 87%.

As for `Cc1cc(F)c(C(=O)Nc2cccc(-c3nncn3C(C)C)n2)cc1-n1cnc(C2CC2)c1`, the % of control in assay [2] came out at 100%.

With `CC[C@@H]1[C@H](F)C(=O)N[C@@H]1COc1nccc2cc(C(N)=O)c(OC)cc12` [ZIMLOVISERTIB], the % of inhibition in assay [3] amounted to 9.25%.

In assay [4], `C=CC(=O)Nc1cc(-n2c(=O)ccc3cnc4ccc(-c5ccc(NS(C)(=O)=O)cc5)cc4c32)ccc1C` returned a % of control of 6.6%.

In the case of `CN(C)C/C=C/C(=O)Nc1ccc(C(=O)N2CCCC(Nc3ncc(Cl)c(-c4c[nH]c5ccccc45)n3)C2)cc1` (stereo not given), the % of control in assay [5] amounted to 100%.
